Results reported in ChEMBL document CHEMBL5154652, “Design, synthesis and anti-hepatocellular carcinoma activity of 3-arylisoquinoline alkaloids” (Eur J Med Chem, 2022).

Columns and labels:
Assay type in all cases: functional, cell-based
HCCLM9 = test: Antiproliferative activity against human HCCLM9 cells after 72 hrs by MTT assay; conditions: HCCLM9, 72 h
Huh-7 = test: Antiproliferative activity against human Huh-7 cells after 72 hrs by MTT assay; conditions: Huh-7, 72 h
SK-HEP1 = test: Antiproliferative activity against human SK-HEP1 cells after 72 hrs by MTT assay; conditions: SK-HEP1, 72 h
HepG2 = test: Antiproliferative activity against human HepG2 cells after 72 hrs by MTT assay; conditions: HepG2, 72 h
HT-29 = test: Antiproliferative activity against human HT-29 cells after 72 hrs by MTT assay; conditions: HT-29, 72 h
HCT-116 = test: Antiproliferative activity against human HCT-116 cells after 72 hrs by MTT assay; conditions: HCT-116, 72 h
RKO = test: Antiproliferative activity against human RKO cells after 72 hrs by MTT assay
SW480 = test: Antiproliferative activity against human SW480 cells after 72 hrs by MTT assay; conditions: SW480, 72 h
MCF7 = test: Antiproliferative activity against human MCF7 cells after 72 hrs by MTT assay; conditions: MCF7, 72 h
MDA-MB-231 = test: Antiproliferative activity against human MDA-MB-231 cells after 72 hrs by MTT assay; conditions: MDA-MB-231, 72 h
HGC-27 = test: Antiproliferative activity against human HGC-27 cells after 72 hrs by MTT assay; conditions: HGC-27, 72 h
BGC-823 = test: Antiproliferative activity against human BGC-823 cells after 72 hrs by MTT assay; conditions: BGC-823, 72 h
U-251 = test: Antiproliferative activity against human U-251 cells after 72 hrs by MTT assay; conditions: U-251, 72 h
HL-60 = test: Antiproliferative activity against human HL-60 cells after 72 hrs by MTT assay; conditions: HL-60, 72 h
L02 = test: Antiproliferative activity against human L02 cells after 72 hrs by MTT assay; conditions: L02, 72 h
SGC-7901 = test: Antiproliferative activity against human SGC-7901 cells after 72 hrs by MTT assay; conditions: SGC-7901, 72 h
A549 = test: Antiproliferative activity against human A549 cells after 72 hrs by MTT assay; conditions: A549, 72 h

CNCCc1cc2c(cc1-c1cc3ccc4c(c3cn1)OCO4)OCO2
IC50 (HCCLM9): 10 µM
IC50 (Huh-7): 15.5 µM
IC50 (SK-HEP1): 28.2 µM
IC50 (HepG2): 45 µM
IC50 (HT-29): 23 µM
IC50 (HCT-116): > 150 µM
IC50 (RKO): 63.5 µM
IC50 (SW480): 25.4 µM
IC50 (MCF7): 49.9 µM
IC50 (MDA-MB-231): 19.3 µM
IC50 (HGC-27): 20.9 µM
IC50 (BGC-823): 25.9 µM
IC50 (U-251): 19.1 µM
IC50 (HL-60): 113 µM
IC50 (L02): > 150 µM

COc1cc(CCN(C)C)c(-c2cc3ccc4c(c3cn2)OCO4)cc1OC
IC50 (HCCLM9): 32.4 µM
IC50 (Huh-7): 59.5 µM
IC50 (HepG2): > 150 µM
IC50 (HT-29): 146 µM
IC50 (HCT-116): > 150 µM
IC50 (RKO): > 150 µM
IC50 (SW480): 40.6 µM
IC50 (MCF7): 94.6 µM
IC50 (MDA-MB-231): 103 µM
IC50 (HGC-27): > 150 µM
IC50 (SGC-7901): 81.9 µM
IC50 (BGC-823): 31.6 µM
IC50 (A549): > 150 µM
IC50 (U-251): 65.1 µM
IC50 (HL-60): > 150 µM
IC50 (L02): > 150 µM

OCc1c(-c2cc3c4c(ccc3cn2)OCO4)ccc2c1OCO2
IC50 (HCCLM9): > 150 µM
IC50 (Huh-7): 40.8 µM
IC50 (HepG2): > 150 µM
IC50 (HT-29): > 150 µM
IC50 (HCT-116): > 150 µM
IC50 (RKO): > 150 µM
IC50 (SW480): > 150 µM
IC50 (L02): > 150 µM

CNCCc1cc(OC)c(OC)cc1-c1cc2ccc3c(c2cn1)OCO3
IC50 (HCCLM9): 20.2 µM
IC50 (Huh-7): 42.9 µM
IC50 (SK-HEP1): 69.9 µM
IC50 (HT-29): 122 µM
IC50 (HCT-116): > 150 µM
IC50 (RKO): > 150 µM
IC50 (SW480): 21.8 µM
IC50 (MCF7): 52.8 µM
IC50 (MDA-MB-231): 68.7 µM
IC50 (HGC-27): 93.9 µM
IC50 (SGC-7901): > 150 µM
IC50 (BGC-823): 15.8 µM
IC50 (U-251): 43.3 µM
IC50 (HL-60): > 150 µM
IC50 (L02): > 150 µM

COCCc1cc(OC)c(OC)cc1-c1cc2ccc3c(c2cn1)OCO3
IC50 (HCCLM9): > 150 µM
IC50 (Huh-7): 77 µM
IC50 (HepG2): > 150 µM
IC50 (HT-29): > 150 µM
IC50 (HCT-116): > 150 µM
IC50 (RKO): > 150 µM
IC50 (SW480): 105 µM
IC50 (MCF7): 32.4 µM
IC50 (MDA-MB-231): 128 µM
IC50 (HGC-27): 120 µM
IC50 (SGC-7901): > 150 µM
IC50 (BGC-823): > 150 µM
IC50 (A549): > 150 µM
IC50 (U-251): > 150 µM
IC50 (HL-60): > 150 µM
IC50 (L02): > 150 µM

CN(C)CCCc1cc2c(cc1-c1cc3ccc4c(c3cn1)OCO4)OCO2
IC50 (HCCLM9): 15.6 µM
IC50 (Huh-7): 20 µM
IC50 (SK-HEP1): 38.2 µM
IC50 (HepG2): 80.4 µM
IC50 (HT-29): 96.6 µM
IC50 (HCT-116): > 150 µM
IC50 (RKO): 126 µM
IC50 (SW480): 40.6 µM
IC50 (MCF7): 60.4 µM
IC50 (MDA-MB-231): 35.6 µM
IC50 (HGC-27): > 150 µM
IC50 (SGC-7901): 55.5 µM
IC50 (BGC-823): 51.8 µM
IC50 (A549): 65.7 µM
IC50 (U-251): 24.5 µM
IC50 (HL-60): 93.6 µM
IC50 (L02): > 150 µM

CNCc1c(-c2cc3c4c(ccc3cn2)OCO4)ccc2c1OCO2
IC50 (HCCLM9): 7.25 µM
IC50 (Huh-7): 20.2 µM
IC50 (HepG2): 26.7 µM
IC50 (HT-29): 44.5 µM
IC50 (HCT-116): 26.7 µM
IC50 (RKO): 26.7 µM
IC50 (SW480): 42.7 µM
IC50 (L02): 74.6 µM

CCOC(=O)N(C)CCc1cc2c(cc1-c1cc3ccc4c(c3cn1)OCO4)OCO2
IC50 (HCCLM9): 25.1 µM
IC50 (Huh-7): 19.2 µM
IC50 (SK-HEP1): 103 µM
IC50 (HepG2): 27.3 µM
IC50 (HT-29): 96.6 µM
IC50 (HCT-116): > 150 µM
IC50 (RKO): 91.6 µM
IC50 (SW480): 28.6 µM
IC50 (MCF7): 69.7 µM
IC50 (MDA-MB-231): 36.7 µM
IC50 (HGC-27): 99.8 µM
IC50 (SGC-7901): 28.8 µM
IC50 (BGC-823): 49.9 µM
IC50 (A549): > 150 µM
IC50 (U-251): 51.8 µM
IC50 (HL-60): > 150 µM
IC50 (L02): 149 µM
